Reference: PMC7091366 (Archives of Pharmacal Research, 2014)
Converted amounts (≈) assume the structure as drawn. “Also recorded” adds a separate entry of the source.

Legend:
[1] = system: Japanese encephalitis virus (JEV); experiment: Quantitative assay of JEV yields by real-time RT-PCR; format: cell-based; conditions: for Ct (real-time RT-PCR of JEV RNA in supernatant) / ΔCt (Ct experimental − Ct control) / Reduction in virus RNA loads: 10 μg/ml; for Ct (real-time RT-PCR of JEV RNA in supernatant) / ΔCt (Ct experimental − Ct control): JEV MOI 1, BHK-21 cells, 72 h; for Reduction in virus RNA loads: supernatant of infected BHK-21 cells, three days post infection; for inhibition at 10 µg/mL: Japanese encephalitis virus, BHK-21, read-out: Inhibition of JEV yields
Cell viability = format: cell-based, baby hamster; conditions: hamster, BHK-21 cells, CC50, BHK-21 cells, MTT
[2] = system: Japanese encephalitis virus (JEV) strain T1P1; experiment: JEV plaque reduction assay in BHK-21 cells; format: cell-based; conditions: JEV 100 pfu, BHK-21 monolayer, plaques after 3 days
[3] = system: GAS-driven promoter (pGAS-Luc) in BHK-21 cells; experiment: GAS-driven promoter dual-luciferase reporter assay; format: cell-based, baby hamster; conditions: 10 μg/ml, 4 h, versus untreated cells
BHK-21 cells = experiment: Cell viability; format: cell-based, baby hamster; conditions: 72 h, MTT

Compound	Ct (real-time RT-PCR of JEV RNA in supernatant) [1]	ΔCt (Ct experimental − Ct control) [1]	Reduction in virus RNA loads [1]	inhibition at 10 µg/mL [1]	CC50 at 72 h (Cell viability)	IC50 (JEV plaque reduction) [2]	Activity of GAS-driven promoter (relative firefly luciferase) ([3]; listed as aloe emodin)	Activity of GAS-driven promoter (relative firefly luciferase) ([3]; listed as aloe-emodin)	Activity of GAS-driven promoter (relative firefly luciferase) [3]	CC50 (BHK-21 cells)
O=C1c2cccc(O)c2C(=O)c2c(O)cc(CO)cc21 [Aloe-emodin]	32.25	6.72	more than 1 log	90%	20.2 ± 1.01 mg/L (≈ 74.7 µM)	17.39 ± 0.58 mg/L (≈ 64.4 µM)	significantly activated	significantly increased		
COc1cc(O)c2c(c1)C(=O)c1cc(C)cc(O)c1C2=O [Physcion]					20.7 ± 4.66 mg/L (≈ 72.8 µM)					
Cc1cc(O)c2c(c1)C(=O)c1cccc(O)c1C2=O [Chrysophanol]	29.26	3.73	more than 1 log	90%	18.2 ± 5.53 mg/L (≈ 71.5 µM)	15.82 ± 2.62 mg/L (≈ 62.2 µM)			significantly activated; also recorded: significantly increased	
Cc1cc(O)c2c(c1)C(=O)c1cc(O)cc(O)c1C2=O [Emodin]										5.49 ± 1.82 mg/L (≈ 20.3 µM)
